We go through one compound from patent US20240299394A1, “TARGETED TREATMENT FOR SKIN FRAGILITY DISEASES” (University of Washington, priority 2023, published 2024).

For data set [1], the system named is organotypic epidermis of NHEKs. The data set is described as follows: Organotypic epidermis treated with B-RAF inhibitors (H&E, immunostaining). It counts as cell-based, human. The note with it: Dab or Vem alone, 48 hours. As for the experimental part: Inhibitors were used at the following concentrations: Dabrafenib (1 μM), vemurafenib (10 μM), trametinib (1 μM).
Paraffin-embedded formalin-fixed tissue cross-sections on glass slides were incubated at 65° C. for 2 hours. Sections were prepared for staining by immersion in 3 baths of xylenes (Fisher) for 5 minutes each, followed by 3 baths of 95% ethanol for 5 minutes each, then 70% ethanol for 5 minutes, and finally 3 baths of PBS for 5 minutes each.

Another data set deals with NHEKs. Kind of data set: Immunofluorescence of plakoglobin / desmosomal protein localization. The format is cell-based, human. Particulars: B-RAF inhibitor alone, 24 hours in E-medium. As for the experimental part:
Keratinocytes were grown to confluency in 35 mm glass-bottom cell culture dishes (MatTek of Ashland, MA, Cat. #P35G-1.5-20-C). For staining keratins and desmosomal proteins, cells were fixed in ice-cold 100% methanol at −20° C. for 2 minutes, allowed to dry, then re-hydrated in PBS. For staining other proteins, cells were fixed in 4% paraformaldehyde for 10 minutes at 37° C. Fixed cells were then incubated with blocking buffer [0.5% (w/v) bovine serum albumin (BSA, Sigma), 10% (w/v) normal goat serum (NGS, Sigma) in PBS] for 30 min at 37° C. Cells were then washed with PBS. Primary antibodies were diluted in 0.5% (w/v) BSA in PBS and incubated on the cells overnight at 4° C. Primary antibody dilutions were as follows: chicken anti-plakoglobin (1:1000). […]
Images were acquired on a Hamamatsu ORCA-FusionBT sCMOS camera (Hamamatsu of Hamamatsu City, Japan) using a Yokogawa W1 spinning-disk confocal (SDC) system (Yokogawa of Musashino, Tokyo, Japan) on a Nikon Ti2 microscope (Nikon of Minato City, Tokyo, Japan). Samples were illuminated using 405, 488, 561, and 640 nm laser excitation lines and fluorescence was detected using a 60×1.2 numerical aperture (NA) water objective (Nikon) with standard emission filters.

For the next data set, the system named is NHEK monolayers. The data set is described as follows: Monolayer mechanical dissociation assay, SERCA2 inhibition with thapsigargin. The note with it: with 1 μM TG, 24 hours; 1 μM Tram, 10 μM U0126, 20 μM PD98059, 1 μM dabrafenib. It counts as cell-based, human. As to the method:
Dispase-based mechanical dissociation assays were carried out as described (Simpson C L, et al. Am J Pathol. 2010; 177(6): p. 2921-37). Keratinocytes were plated at a density of 1×10^6 cells per well of 6-well cell culture dishes. Upon reaching confluence, the calcium concentration of the medium was adjusted to 1.3 mM. Vehicle control (DMSO) or chemical inhibitors were added at the following concentrations: […] After 24 to 72 hours, monolayers were washed with PBS and then incubated with 500 μL dispase (5 U/ml) in Hank's balanced salt solution (Stemcell Technologies of Vancouver, CA, Cat. #07913) for 30 minutes at 37° C. Next, 4.5 ml PBS was added to the wells and all liquid plus released monolayers were transferred into 15 mL conical tubes, which were placed together in a rack and inverted 5-10 times to induce mechanical stress. Monolayer fragments were transferred back into 6-well cell culture plates and imaged with a 12-megapixel digital camera. Fragments were counted in Fiji.

Another data set deals with HET cells (THEKs). Kind of data set: Immunoblot of KRT10 and KRT14 in keratinocyte lysates. The format is cell-based, human. Particulars: 1 μM Dab, 1 μM Tram, 10 μM U0126, 10 μM PD184352, 20 μM PD98059 (FIG. 10D). As to the method:
THEKs were seeded at a density of 1×10^6 cells per well of 6-well cell culture dishes in KSFM. Upon reaching confluence, KSFM was replaced with E-medium containing vehicle control (DMSO) or inhibitors at the following concentrations: Dabrafenib (1 μM), trametinib (1 μM), U0126 (10 μM), PD184352 (10 μM), or PD98059 (20 μM). After 72 hours, whole-cell lysates were generated by washing cells once in PBS followed by lysis in urea sample buffer [8 M Urea, 60 mM Tris, 1% sodium dodecyl sulfate (SDS), 10% glycerol, 5% β-mercaptoethanol, 0.0005% pyronin-Y, pH 6.8] for 10 min. Lysates were homogenized using a microtip probe sonicator (Fisher Scientific).
Whole-cell lysates were loaded onto Any kD Mini-PROTEAN TGX Precast Protein Gels (Bio-Rad) and separated by electrophoresis. Proteins were transferred onto nitrocellulose membranes (Bio-Rad) in ice-cold Towbin transfer buffer (25 mM Tris, 192 mM glycine, 20% (v/v) methanol) at 100 volts (V) for 90 minutes at 4° C. Membranes were blocked in Intercept tris-buffered saline (TBS) blocking buffer (LI-COR) for 45 min at room temperature. Membranes were probed overnight at 4° C. with the primary antibodies diluted at 1:1000 in Intercept TBS blocking buffer (LI-COR). […]

The conditions of data set [2]: B-RAF inhibitor monotherapy for cancer (Carlos G, et al. 2015); cited from earlier work.

`CC(C)(C)c1nc(-c2cccc(NS(=O)(=O)c3c(F)cccc3F)c2F)c(-c2ccnc(N)n2)s1` [dabrafenib]: the “localization of plakoglobin to cell-cell junctions” value in data set [1] was “reduced localization of plakoglobin to cell-cell junctions”. For the same compound, in the data set with NHEKs, the “localization of desmosomal proteins” value is “induced mislocalization of desmosomal proteins”. Besides, in the data set with NHEK monolayers, the “integrity of epithelial sheets despite SERCA2 inhibition” value is “did not promote intercellular adhesion, but rather exacerbated the effect of TG”. The KRT10 by immunoblot result in the data set on HET cells (THEKs) was “failed to rescue KRT10 expression”. For the same compound, in data set [2], the “patients in whom GD was seen” value is listed as 42.9%.
